Reference: ChEMBL document CHEMBL5518189, “Design, synthesis and biological evaluation of 1,2,3-triazole benzothiazole derivatives as tubulin polymerization inhibitors with potent anti-esophageal cancer activities” (Eur J Med Chem, 2024)
Activity calls are given as the source filed them. No cut-off for these calls is given here.

Columns and labels:
KYSE-30 [1] = experiment: Induction of cell cycle arrest in human KYSE-30 cells assessed as downregulation of CDK1 level at 40 to 60 nM measured after 48 hrs by Western blot analysis; assay type: functional, cell-based; settings: dose 40-60 nM
KYSE-30 [2] = experiment: Induction of apoptosis in human KYSE-30 cells assessed as effect on bax level at 40 to 60 nM by flow cytometry analysis; assay type: functional, cell-based; settings: dose 40-60 nM
ECa-109 cell line [3] = experiment: Induction of apoptosis in human EC109 cells assessed as increase in Noxa expression level at 40 to 60 nM by flow cytometry analysis; assay type: functional, cell-based; settings: dose 40-60 nM
KYSE-30 [4] = experiment: Antiproliferative activity against human KYSE-30 cells assessed as inhibition of cell growth measured after 48 hrs by CCK8 method; assay type: functional, cell-based; settings: KYSE-30, 48 h
ECa-109 cell line [5] = experiment: Induction of cell cycle arrest in human EC109 cells assessed as downregulation of Wee1 phosphorylation level at 40 to 60 nM measured after 48 hrs by Western blot analysis; assay type: functional, cell-based; settings: dose 40-60 nM
KYSE-30 [6] = experiment: Induction of cell cycle arrest in human KYSE-30 cells assessed as downregulation of CDC25C level at 40 to 60 nM measured after 48 hrs by Western blot analysis; assay type: functional, cell-based; settings: dose 40-60 nM
KYSE-30 [7] = experiment: Induction of apoptosis in human KYSE-30 cells assessed as increase in cleaved caspase 3 level at 40 to 100 nM measured after 48 hrs by Western blot analysis; assay type: functional, cell-based; settings: dose 40-100 nM
ECa-109 cell line [8] = experiment: Inhibition of colony formation in human EC109 cells at 20 to 40 nM incubated for 7 days by crystal violet staining based analysis; assay type: functional, cell-based; settings: dose 20-40 nM, time 7.0 day
ECa-109 cell line [9] = experiment: Antiproliferative activity against human EC109 cells assessed as reduction in cell viability measured after 48 hrs by CCK-8 method; assay type: functional, cell-based; settings: dose 10-70 nM
ECa-109 cell line [10] = experiment: Antiproliferative activity against human EC109 cells assessed as reduction in cell viability at 70 nM measured after 48 hrs by CCK-8 method relative to control; assay type: functional
KYSE-30 [11] = experiment: Induction of apoptosis in human KYSE-30 cells assessed as increase in cleaved PARP level at 40 to 100 nM measured after 48 hrs by Western blot analysis; assay type: functional, cell-based; settings: dose 40-100 nM
KYSE-30 [12] = experiment: Antiproliferative activity against human KYSE-30 cells assessed as reduction in cell viability by CCK-8 method; assay type: functional, cell-based; settings: time 12-48 hrs, TDE = time-dependent effect
KYSE-30 [13] = experiment: Induction of cell cycle arrest in human KYSE-30 cells assessed as downregulation of Wee1 phosphorylation level at 40 to 60 nM measured after 48 hrs by Western blot analysis; assay type: functional, cell-based; settings: dose 40-60 nM
ECa-109 cell line [14] = experiment: Induction of cell cycle arrest in human EC109 cells assessed as downregulation of CDC25C level at 40 to 60 nM measured after 48 hrs by Western blot analysis; assay type: functional, cell-based; settings: dose 40-60 nM
Cell membrane [15] = experiment: Induction of mitochondrial membrane depolarization in human KYSE-30 cells at 40 to 60 nM incubated for 24 hrs by flow cytometry analysis; assay type: cell membranes; settings: dose 40-60 nM
ECa-109 [16] = experiment: Downregulation of YAP level in human EC109 cells incubated for 48 hrs; assay type: functional, cell-based; settings: dose 40-80 nM
ECa-109 cell line [17] = experiment: Induction of apoptosis in human EC109 cells assessed as downregulation of bcl-2 level at 40 to 60 nM by flow cytometry analysis; assay type: functional, cell-based; settings: dose 40-60 nM
ECa-109 cell line [18] = experiment: Induction of apoptosis in human EC109 cells assessed as increase in cleaved caspase 3 level at 40 to 100 nM measured after 48 hrs by Western blot analysis; assay type: functional, cell-based; settings: dose 40-100 nM
Cell membrane [19] = experiment: Induction of mitochondrial membrane depolarization in human EC109 cells at 40 to 60 nM incubated for 24 hrs by flow cytometry analysis; assay type: cell membranes; settings: dose 40-60 nM
ECa-109 cell line [20] = experiment: Induction of cell cycle arrest in human EC109 cells assessed as upregulation of histone H3 phosphorylation level at 40 to 60 nM measured after 48 hrs by Western blot analysis; assay type: functional, cell-based; settings: dose 40-60 nM
Cell membrane [21] = experiment: Induction of mitochondrial membrane depolarization in human EC109 cells assessed as increase in caspase 9 activity at 40 to 60 nM incubated for 24 hrs by flow cytometry analysis; assay type: cell membranes; settings: dose 40-60 nM
ECa-109 [22] = experiment: Downregulation of MST phosphorylation level in human EC109 cells at 40 to 60 nM measured after 48 hrs; assay type: functional, cell-based; settings: dose 40-60 nM
ECa-109 cell line [23] = experiment: Induction of apoptosis in human EC109 cells assessed as effect on bax level at 40 to 60 nM by flow cytometry analysis; assay type: functional, cell-based; settings: dose 40-60 nM
ECa-109 cell line [24] = experiment: Induction of apoptosis in human EC109 cells assessed as increase in caspase 3 activity at 40 to 100 nM measured after 48 hrs by Western blot analysis; assay type: functional, cell-based; settings: dose 40-100 nM

Activity (Cell membrane [15]): Active | Activity (Cell membrane [19]): Active | Activity (Cell membrane [21]): Active
SMILES: COc1ccc(CN(C(=O)Cn2cc(CSc3nc4ccccc4s3)nn2)c2cc(OC)c(OC)c(OC)c2)cc1O
Activity (KYSE-30 [1]): Active | Activity (KYSE-30 [2]): inactive | Activity (ECa-109 cell line [3]): Active | IC50 (KYSE-30 [4]): 42 nM | Activity (ECa-109 cell line [5]): Active | Activity (KYSE-30 [6]): Active | Activity (KYSE-30 [7]): Active | inhibition (ECa-109 cell line [8]): Active | Activity (ECa-109 cell line [9]): Dose-Dependent Effect | Activity (ECa-109 cell line [10]): >90% | Activity (KYSE-30 [11]): Active | Activity (KYSE-30 [12]): Tde | Activity (KYSE-30 [13]): Active | Activity (ECa-109 cell line [14]): Active | Activity (ECa-109 [16]): Dose-Dependent Effect | Activity (ECa-109 cell line [17]): Active | Activity (ECa-109 cell line [18]): Active | Activity (ECa-109 cell line [20]): Active | Activity (ECa-109 [22]): Active | Activity (ECa-109 cell line [23]): inactive | Activity (ECa-109 cell line [24]): Active
